# Source: US9723844B2, “Synergistic Bacillus thuringiensis subsp. aizawai, Bacillus thuringiensis subsp. kurstaki and chlorantraniliprole mixtures for diamondback moth, beet armyworm, sugarcane borer, soybean looper, corn earworm, cabbage looper, and southwestern corn borer control” (Valent BioSciences Corporation, priority 2015, dated 2017)
# Where two headings read alike, the source gives them in different places.
# What was measured:
# beet armyworm larvae = assay: Leaf dip test, beet armyworm larvae; assay type: in vivo; settings: Spodoptera exigua, foliar, Bta/Btk 1.69 ppm, chlorantraniliprole 0.0009 ppm, read-out: % Efficacy
# Text: (§1) The following examples were used to determine the synergy of Bacillus thuringiensis subsp. aizawai, Bacillus thuringiensis subsp. kurstaki and chlorantraniliprole when controlling diamondback moth, beet armyworm, sugarcane borer, soybean looper, corn earworm, cabbage looper, and southwestern corn borer. Sympatico™ emulsifiable suspension (available from Valent BioSciences Corporation) was used as the source of Bacillus thuringiensis subsp. aizawai and Bacillus thuringiensis kurstaki. Sympatico™ contains about a 1:0.67 ratio of Bacillus thuringiensis subsp. kurstaki fermentation solids, spores and toxins to Bacillus thuringiensis subsp. aizawai fermentation solids, spores and toxins. Coragen® was used as the source of chlorantraniliprole. The present invention is not limited to the commercial products used in the examples. In each example below, the studies were conducted as follows.
# (§2) For these tests, standardized laboratory leaf dip methods were used to inoculate plant material with treatment(s). Dry, treated leaves were placed into Petri dishes (100×25 mm) containing filter paper wetted with 500 μl of distilled H2O (“dH2O”). Each dish was then infested with between 5 and 10 larvae, dependent on species. Efficacy ratings were taken at specified intervals. Synergy ratings were calculated for each test. […]
# sugarcane borer larvae = assay: Leaf dip test, sugarcane borer larvae; assay type: in vivo; settings: Diatraea saccharalis, foliar, Bta/Btk 1.69 ppm, chlorantraniliprole 0.0009 ppm, read-out: % Efficacy
# Text: as §1, §2
# cabbage looper larvae = assay: Leaf dip test, cabbage looper larvae; assay type: in vivo; settings: Trichoplusia ni, foliar, Bta/Btk 1.69 ppm, chlorantraniliprole 0.0009 ppm, read-out: % Efficacy
# Text: as §1, §2
# diamondback moth larvae = assay: Leaf dip test, diamondback moth larvae; assay type: in vivo; settings: Plutella xylostella, foliar, Bta/Btk 1.69 ppm, chlorantraniliprole 0.0009 ppm, read-out: % Efficacy
# Text: as §1, §2
# soybean looper larvae = assay: Leaf dip test, soybean looper larvae; assay type: in vivo, Chrysodeixis includens; settings: foliar, Bta/Btk 0.54 ppm, chlorantraniliprole 0.045 ppm, read-out: % Efficacy
# Text: as §1, §2
# [1] = test system: southwestern corn borer larvae; assay: Leaf dip test, southwestern corn borer larvae; assay type: in vivo, Diatraea grandiosella; settings: foliar, Bta/Btk 1.69 ppm, chlorantraniliprole 0.0009 ppm, read-out: % Efficacy
# Text: as §1, §2
# corn earworm larvae = assay: Leaf dip test, corn earworm larvae; assay type: in vivo; settings: Helicoverpa zea, foliar, Bta/Btk 5.4 ppm, chlorantraniliprole 0.0009 ppm, read-out: % Efficacy
# Text: as §1, §2
structure (smiles),measurement,setting,value
CNC(=O)c1cc(Cl)cc(C)c1NC(=O)c1cc(Br)nn1-c1ncccc1Cl [Chlorantraniliprole],Emax at 0.0009 ppm,beet armyworm larvae; 24 h after treatment,3%
same,Emax at 0.0009 ppm,beet armyworm larvae; 48 h after treatment,7%
same,Emax at 0.0009 ppm,sugarcane borer larvae; 24 h after treatment,3%
same,Emax at 0.0009 ppm,sugarcane borer larvae; 48 h after treatment,13%
same,Emax at 0.0009 ppm,cabbage looper larvae; 24 h after treatment,3%
same,Emax at 0.0009 ppm,cabbage looper larvae; 48 h after treatment,10%
same,Emax at 0.0009 ppm,diamondback moth larvae; 24 h after treatment,7%
same,Emax at 0.0009 ppm,diamondback moth larvae; 48 h after treatment,13%
same,Emax at 0.045 ppm,soybean looper larvae; 24 h after treatment,3%
same,Emax at 0.045 ppm,soybean looper larvae; 48 h after treatment,14%
same,Emax at 0.0009 ppm,[1]; 24 h after treatment,3%
same,Emax at 0.0009 ppm,[1]; 48 h after treatment,3%
same,Emax at 0.0009 ppm,corn earworm larvae; 24 h after treatment,3%
same,Emax at 0.0009 ppm,corn earworm larvae; 48 h after treatment,3%
